Measured values from patent US7592160B2, “Processes for producing isomaltose and isomaltitol and use thereof” (Kabushiki Kaisha Hayashibara Seibutsu Kagaku Kenkyujo, priority 2001, dated 2009).

Legend:
[1] = tested on: α-isomaltosylglucosaccharide-forming enzyme; assay: Action on saccharides as substrates (TLC), enzyme of A19 strain; format: biochemical, Arthrobacter globiformis A19 strain; parameters: key: −: it showed no change; +: it showed a slight reduction of the color spot of the substrate and the formation of other reaction product; ++: it showed a high reduction of the color spot of the substrate and the formation of other reaction product; +++: it showed a substantial disappearance of the substrate spot and the formation of other reaction product; conditions: two units/g substrate, substrate 2% (w/v), 30° C., pH 8.4, 24 hours
Source text: (§1) To examine the saccharides in the supernatant, they were separated by developing twice on silica gel thin-layer chromatography (abbreviated as “TLC” hereinafter) using, as a developer, a mixture solution of n-butanol, pyridine, and water (=6:4:1 by volume), and, as a thin-layer plate, “[…]™ 60”, an aluminum plate (20×20 cm) for TLC commercialized by Merck & Co., Inc., Rahway, USA. The coloration of the separated total sugars by the sulfuric acid-methanol method and that of the reducing saccharides by the diphenylamine-aniline method detected a non-reducing saccharide positive at an Rf value of about 0.31 on the former detection method but negative on the latter detection method.
(§2) It was tested whether any saccharides can be used as substrates for α-isomaltosylglucosaccharide-forming enzyme. For the purpose, a solution of maltose, maltotriose, maltotetraose, maltopentaose, maltohexaose, maltoheptaose, isomaltose, isomaltotriose, panose, isopanose, α,α-trehalose, kojibiose, nigerose, neotrehalose, cellobiose, gentibiose, maltitol, maltotriitol, lactose, sucrose, erlose, selaginose, maltosyl glucoside, or isomaltosyl glucoside was prepared.
(§3) To each of the above solutions was added two units/g substrate of a purified specimen of α-isomaltosylglucosaccharide-forming enzyme from either Bacillus globisporus C9 strain obtained by the method in Experiment 4-2, Bacillus globisporus C11 strain obtained by the method in Experiment 7-2, Bacillus globisporus N75 strain obtained by the method in Experiment 11-2, or Arthrobacter globiformis A19 strain obtained by the method in Experiment 15-2, and the resulting each solution was adjusted to give a substrate concentration of 2% (w/v) and incubated at 30° C. and pH 6.0 for 24 hours, except for using pH 8.4 for the enzyme from Arthrobacter globiformis A19 strain. The enzyme solutions before and after the enzymatic reactions were respectively analyzed on TLC disclosed in Experiment 1 to confirm whether the enzymes acted on these substrates.

[2] = tested on: α-isomaltosylglucosaccharide-forming enzyme; assay: Action on saccharides as substrates (TLC), enzyme of N75 strain; format: biochemical, Bacillus globisporus N75 strain; parameters: key: −: it showed no change; +: it showed a slight reduction of the color spot of the substrate and the formation of other reaction product; ++: it showed a high reduction of the color spot of the substrate and the formation of other reaction product; +++: it showed a substantial disappearance of the substrate spot and the formation of other reaction product; conditions: two units/g substrate, substrate 2% (w/v), 30° C., pH 6.0, 24 hours
Source text: as §1, §2, §3

[3] = tested on: α-isomaltosylglucosaccharide-forming enzyme; assay: Transfer-acceptor specificity, enzyme of C11 strain; format: biochemical, Bacillus globisporus C11 strain; conditions: acceptor 1.6%, PINE-DEX #100 donor 4%, one unit/g donor, 30° C., pH 6.0, 24 hours
Description: (§4) Using various saccharides, it was tested whether the saccharides were used as transferring-acceptors for α-isomaltosylglucosaccharide-forming enzyme. A solution of D-glucose, D-xylose, L-xylose, D-galactose, D-fructose, D-mannose, D-arabinose, D-fucose, D-psicose, L-sorbose, L-rhamnose, methyl-α-glucopyranoside, methyl-β-glucopyranoside, N-acetyl-glucosamine, sorbitol, α,α-trehalose, isomaltose, isomaltotriose, cellobiose, gentibiose, glycerol, maltitol, lactose, sucrose, α-cyclodextrin, β-cyclodextrin, γ-cyclodextrin, or L-ascorbic acid was prepared. To each solution with a saccharide concentration of 1.6% was added “PINE-DEX #100”, a partial starch hydrolyzate, as a saccharide donor, to give a concentration of 4%, and admixed with one unit/g saccharide donor, d.s.b., of either of purified specimens of α-isomaltosylglucosaccharide-forming enzyme from Bacillus globisporus C9 strain obtained by the method in Experiment 4-2, Bacillus globisporus C11 strain obtained by the method in Experiment 7-2, Bacillus globisporus N75 strain obtained by the method in Experiment 11-2, or Arthrobacter globiformis A19 strain obtained by the method in Experiment 15-2, and incubated at 30° C. and pH 6.0 for 24 hours, except that pH 8.4 was used for the enzyme from Arthrobacter globiformis A19 strain. The reaction mixtures of the post-enzymatic reactions were analyzed on gas chromatography (abbreviated as “GLC” hereinafter) for monosaccharides and disaccharides as acceptors, and on HPLC for trisaccharides as acceptors to confirm whether these saccharides could be used as the transfer acceptors of the above enzymes. In the case of performing GLC, the following apparatuses and conditions were used: GLC apparatus, “GC-16A” commercialized by Shimadzu Corporation, Tokyo, Japan; column, a stainless-steel column, 3 mm in diameter and 2 m in length, packed with 2% “SILICONE OV-17/CHROMOSOLV W”, commercialized by GL Sciences Inc., Tokyo, Japan; carrier gas, nitrogen gas at a flow rate of 40 ml/min under temperature conditions of increasing from 160° C. to 320° C. at an increasing temperature rate of 7.5° C./min; and detection, a hydrogen flame ionization detector. In the case of performing HPLC analysis, the following apparatuses and conditions were used: HPLC apparatus, “CCPD” commercialized by Tosoh Corporation, Tokyo, Japan; column, “ODS-AQ-303” commercialized by YMC Co., Ltd., Tokyo, Japan; eluent, water at a flow rate of 0.5 ml/min; and detection, a differential refractometer.

[4] = tested on: α-isomaltosylglucosaccharide-forming enzyme; assay: Action on saccharides as substrates (TLC), enzyme of C11 strain; format: biochemical, Bacillus globisporus C11 strain; parameters: key: −: it showed no change; +: it showed a slight reduction of the color spot of the substrate and the formation of other reaction product; ++: it showed a high reduction of the color spot of the substrate and the formation of other reaction product; +++: it showed a substantial disappearance of the substrate spot and the formation of other reaction product; conditions: two units/g substrate, substrate 2% (w/v), 30° C., pH 6.0, 24 hours
Source text: as §1, §2, §3

[5] = tested on: α-isomaltosylglucosaccharide-forming enzyme; assay: Transfer-acceptor specificity, enzyme of N75 strain; format: biochemical, Bacillus globisporus N75 strain; conditions: acceptor 1.6%, PINE-DEX #100 donor 4%, one unit/g donor, 30° C., pH 6.0, 24 hours
Description: as §4

[6] = tested on: α-isomaltosylglucosaccharide-forming enzyme; assay: Transfer-acceptor specificity, enzyme of A19 strain; format: biochemical, Arthrobacter globiformis A19 strain; conditions: acceptor 1.6%, PINE-DEX #100 donor 4%, one unit/g donor, 30° C., pH 8.4, 24 hours
Description: as §4

[7] = tested on: α-isomaltosylglucosaccharide-forming enzyme; assay: Transfer-acceptor specificity, enzyme of C9 strain; format: biochemical, Bacillus globisporus C9 strain; conditions: acceptor 1.6%, PINE-DEX #100 donor 4%, one unit/g donor, 30° C., pH 6.0, 24 hours
Description: as §4

[8] = tested on: α-isomaltosylglucosaccharide-forming enzyme; assay: Action on saccharides as substrates (TLC), enzyme of C9 strain; format: biochemical, Bacillus globisporus C9 strain; parameters: key: −: it showed no change; +: it showed a slight reduction of the color spot of the substrate and the formation of other reaction product; ++: it showed a high reduction of the color spot of the substrate and the formation of other reaction product; +++: it showed a substantial disappearance of the substrate spot and the formation of other reaction product; conditions: two units/g substrate, substrate 2% (w/v), 30° C., pH 6.0, 24 hours
Source text: as §1, §2, §3

Row | SMILES | Enzymatic action, Enzyme of A19 strain [1] | Enzymatic action, Enzyme of N75 strain [2] | Product of transferring reaction, Enzyme of C11 strain [3] | Enzymatic action, Enzyme of C11 strain [4] | Product of transferring reaction, Enzyme of N75 strain [5] | Product of transferring reaction, Enzyme of A19 strain [6] | Product of transferring reaction, Enzyme of C9 strain [7] | Enzymatic action, Enzyme of C9 strain [8]
1 | O=C[C@H](O)[C@@H](O)[C@H](O[C@@H]1O[C@H](CO)[C@@H](O)[C@H](O)[C@H]1O)[C@H](O)CO [Cellobiose, cellobiose] | − | − | ++ (a saccharide-transferred product was detected in an amount over ten percent through transfer reaction to acceptor) | − | ++ (a saccharide-transferred product was detected in an amount over ten percent through transfer reaction to acceptor) | ++ (a saccharide-transferred product was detected in an amount over ten percent through transfer reaction to acceptor) | ++ (a saccharide-transferred product was detected in an amount over ten percent through transfer reaction to acceptor) | −
2 | OC[C@H]1O[C@@H](OC[C@H]2OC(O)[C@H](O)[C@@H](O)[C@@H]2O)[C@H](O)[C@@H](O)[C@@H]1O (some centres unmarked) [Gentibiose, gentibiose] | − | − | ++ (a saccharide-transferred product was detected in an amount over ten percent through transfer reaction to acceptor) | − | ++ (a saccharide-transferred product was detected in an amount over ten percent through transfer reaction to acceptor) | + (a saccharide-transferred product was detected in an amount over one percent but less than 10% through transfer reaction to acceptor) | ++ (a saccharide-transferred product was detected in an amount over ten percent through transfer reaction to acceptor) | −
3 | OC[C@H]1O[C@H](OC[C@H]2OC(O)[C@H](O)[C@@H](O)[C@@H]2O)[C@H](O)[C@@H](O)[C@@H]1O (some centres unmarked) [Isomaltose, isomaltose] | − | − | ++ (a saccharide-transferred product was detected in an amount over ten percent through transfer reaction to acceptor) | − | ++ (a saccharide-transferred product was detected in an amount over ten percent through transfer reaction to acceptor) | + (a saccharide-transferred product was detected in an amount over one percent but less than 10% through transfer reaction to acceptor) | ++ (a saccharide-transferred product was detected in an amount over ten percent through transfer reaction to acceptor) | −
4 | OC[C@H]1O[C@H](OC[C@H]2O[C@H](OC[C@H]3OC(O)[C@H](O)[C@@H](O)[C@@H]3O)[C@H](O)[C@@H](O)[C@@H]2O)[C@H](O)[C@@H](O)[C@@H]1O (some centres unmarked) [Isomaltotriose, isomaltotriose] | − | − | ++ (a saccharide-transferred product was detected in an amount over ten percent through transfer reaction to acceptor) | − | ++ (a saccharide-transferred product was detected in an amount over ten percent through transfer reaction to acceptor) | ± (a saccharide-transferred product was detected in an amount less than one percent through transfer reaction to acceptor) | ++ (a saccharide-transferred product was detected in an amount over ten percent through transfer reaction to acceptor) | −
